Laboratory results from patent publication US10035791B2, “Bicyclic compound and pharmaceutical composition thereof for treating stroke and use thereof” (China Medical University, priority 2016, dated 2018).

Test system: NSCs
Experiment: Proliferation index (PI) measurement of CFSE-labelled NSCs by flow cytometry
Assay type: cell-based, mice
Details: 1 μM for 16 hours; control group 4.37, FIG. 11C
Experimental: To prepare the NSCs, after removal of meninges, subventricular zones (SVZ) of lateral ventricles from adult mice brain (4 week-of-age) are aseptically isolated and dissociated as previously described (J Cell Sci 2006; 119, 4467-4474). All steps are operated under sterile conditions. Then, neurosphere culture are prepared in neurobasal (NB) medium (Gibco BRL) supplemented with 2% of B27 (Gibco BRL), 2 mM of L-glutamine (PAN Biotech), 100 U/ml of penicillin/0.1 mg/L of streptomycin (Gibco BRL). For maintenance and expansion of the cultures, the NB/B27 is further supplemented with 2 μg/mL of heparin (Sigma), 20 ng/mL of FGF-2 (R&D Systems) and 20 ng/mL of EGF (R&D Systems). Neurosphere cultures are maintained at 37° C. in a humidified incubator with 5% CO2. For clonal/low density cultures, primary neurospheres grown at high density are dissociated into a single cell suspension and reseeded into 96-well plates at 100 cells per ml of media and the number of newly formed neurospheres is counted after 7 days. In addition, the Bmi-1 expressions, SOX2 expressions, Nestin expressions, Musashi-1 expressions, BrdU expressions and ki-67 expressions of the newly formed neurospheres are determined by the immunofluorescence staining.
To analyze whet her he Compound 1 modulates the NSCs proliferation, this example examines the effect of the HIF-1α-Bmi-1 pathway on the self-renewal of the neurosphere. […]

## COC(=O)C1=CO[C@@H](O)[C@@H]2C(COC(=O)[C@@H](N)Cc3ccccc3)=CC[C@H]12 [Compound 1]
  proliferation index (PI) of the NSCs: 6.77
